Source: PMC10937419, “Exploring pyrrolidinyl-spirooxindole natural products as promising platforms for the synthesis of novel spirooxindoles as EGFR/CDK2 inhibitors for halting breast cancer cells” (Frontiers in Chemistry, 2024)
Like-named read-outs stand apart in the source and are kept apart here.

Columns and labels:
[1] = test system: MDA-MB-231 cells; experiment: MTT cytotoxicity assay, MDA-MB-231 breast cancer cells; type: cell-based
Experimental: (§1) All cells were incubated at 37 °C in 5% carbon dioxide atmosphere (NuAire). Cells were plated at a density of 5x10^4 cells in triplicates in a plate of 96 wells. On the second day, cells were treated with the compounds with concentrations of (0.01, 0.1, 1, 10, and 100 µM). Cell viability was assessed using the MTT assay [6].

[2] = target: T1, EGFR kinase (Homo sapiens, UniProt P00533); experiment: EGFR kinase inhibition assay; type: biochemical; details: for % remaining EGFR kinase activity (relative to control): signal relative to control
T1 construct: purchased BPS Bioscience Corporation 40321
T1 sequence (P00533 25-1210): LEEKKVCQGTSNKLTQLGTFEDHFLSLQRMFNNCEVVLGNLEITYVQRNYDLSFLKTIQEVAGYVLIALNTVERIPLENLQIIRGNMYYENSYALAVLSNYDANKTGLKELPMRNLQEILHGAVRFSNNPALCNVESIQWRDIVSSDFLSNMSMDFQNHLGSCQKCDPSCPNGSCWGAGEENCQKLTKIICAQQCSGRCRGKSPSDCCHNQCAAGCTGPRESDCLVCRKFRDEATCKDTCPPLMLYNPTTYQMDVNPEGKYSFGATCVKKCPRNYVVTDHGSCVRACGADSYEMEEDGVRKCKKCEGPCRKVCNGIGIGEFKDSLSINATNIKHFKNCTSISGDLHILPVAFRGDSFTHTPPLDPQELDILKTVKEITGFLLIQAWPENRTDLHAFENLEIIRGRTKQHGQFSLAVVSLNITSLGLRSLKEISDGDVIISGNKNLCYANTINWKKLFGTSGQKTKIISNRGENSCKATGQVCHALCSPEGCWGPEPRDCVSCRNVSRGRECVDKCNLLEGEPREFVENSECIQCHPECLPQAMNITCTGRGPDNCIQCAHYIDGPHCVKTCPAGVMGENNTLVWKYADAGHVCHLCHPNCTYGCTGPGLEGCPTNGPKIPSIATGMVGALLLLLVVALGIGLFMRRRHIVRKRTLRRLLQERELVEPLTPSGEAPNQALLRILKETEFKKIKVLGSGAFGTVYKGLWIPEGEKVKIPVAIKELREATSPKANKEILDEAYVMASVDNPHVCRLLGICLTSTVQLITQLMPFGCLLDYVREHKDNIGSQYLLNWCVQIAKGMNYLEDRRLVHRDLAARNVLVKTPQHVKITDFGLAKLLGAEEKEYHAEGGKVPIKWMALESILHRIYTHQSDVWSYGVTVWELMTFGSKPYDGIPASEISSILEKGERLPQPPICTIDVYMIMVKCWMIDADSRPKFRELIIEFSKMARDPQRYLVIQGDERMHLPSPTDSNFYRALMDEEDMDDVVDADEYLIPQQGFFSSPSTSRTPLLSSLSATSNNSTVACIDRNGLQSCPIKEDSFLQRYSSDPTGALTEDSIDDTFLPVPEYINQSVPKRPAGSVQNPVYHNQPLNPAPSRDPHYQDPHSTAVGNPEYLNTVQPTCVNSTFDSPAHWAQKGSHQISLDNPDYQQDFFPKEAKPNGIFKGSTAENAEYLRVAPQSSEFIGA
Experimental: (§2) Inhibitory activities of 5g, 5l, and 5n were tested against EGFR and CDK-2.
(§3) Plus, Promega, USA) inhibition assay.

[3] = test system: MCF-7 cells; experiment: MTT cytotoxicity assay, MCF-7 breast cancer cells; type: cell-based; details: Homo sapiens
Experimental: as §1

[4] = target: T2, CDK-2 kinase (Homo sapiens, UniProt P24941); experiment: CDK-2 kinase inhibition assay (Kinase-Glo Plus); type: biochemical; details: for CDK-2 kinase activity remaining (% of control): signal relative to control
T2 construct: purchased not clearly printed (Promega, USA is printed after 'Kinase-Glo Plus'; #79599 is a BPS Bioscience number to my knowledge) 79599
Experimental: as §2, §3

[5] = test system: WISH cells; experiment: MTT cytotoxicity (safety) assay, normal WISH cells; type: cell-based; details: mean ± SD of three independent trials
Experimental: The cytotoxicity of the synthesized compounds was tested using the MTT assay on breast cancer cells (MCF-7 and MDA-MB-231).
The methods for the Cytotoxic activity ([Mosmann, 1983]; [Nafie et al., 2020a]); EGFR/CDK-2 enzyme inhibition ([Nafie et al., 2022a]); Flow cytometry using Annexin V/PI staining; Gene expression analysis using RT-PCR ([Nafie et al., 2022b]); are amended in the Supplementary Material S1.
as §1, with “Both breast cancer; MCF-7 and MDA-MB-231 and normal (WISH) cells were purchased from the National Research Institute, Egypt, and maintained in RPMI-1640 medium L-Glutamine (Lonza Verviers SPRL, Belgium, cat#12-604F). All” for “All”

[6] = Homo sapiens, MDA-MB-231, MTT assay, mean ± SD of three independent trials, read-out: IC50 ± SD, MDA-MB-231
[7] = average of three independent replicates
[8] = MCF7, MTT assay, mean ± SD of three independent trials, read-out: IC50 ± SD, MCF-7

COC(=O)[C@@H](NC(=O)CN1C(=O)S[C@@]2(C1=O)[C@@H](c1ccc(Br)cc1)[C@H]1CSCN1[C@@]21C(=O)Nc2cc(Cl)ccc21)C(C)C [Compound 5l, Methyl (2-((3S,6′S,7′S,7a′S)-7'-(4-bromophenyl)-6-chloro-2,2″,4″-trioxo-7′,7a′-dihydro-1′H,3′H-dispiro [indoline-3,5′-pyrrolo [1,2-c]thiazole-6′,5″-thiazolidin]-3″-yl)acetyl)valinate]
IC50 [1, 6]: 8.45 µM | IC50 ([1]; MTT assay, mean ± SD of three independent trials, listed as C00012, read-out: IC50 ± SD, MDA-MB-231): 8.43 ± 0.6 µM | % remaining EGFR kinase activity (relative to control) ([2]; 0.01 µM, ΔT=30 min): 69.72% | inhibition at 0.01 µM ([2]; 0.01 µM, ΔT=30 min): 30.3% | % remaining EGFR kinase activity (relative to control) ([2]; 0.1 µM, ΔT=30 min): 60.14% | inhibition at 0.1 µM ([2]; 0.1 µM, ΔT=30 min): 39.9% | % remaining EGFR kinase activity (relative to control) ([2]; 1 µM, ΔT=30 min): 48.86% | inhibition at 1 µM ([2]; 1 µM, ΔT=30 min): 51.1% | % remaining EGFR kinase activity (relative to control) ([2]; 2.5 µM, ΔT=30 min): 41.25% | inhibition at 2.5 µM ([2]; 2.5 µM, ΔT=30 min): 58.7% | % remaining EGFR kinase activity (relative to control) ([2]; 5 µM, ΔT=30 min): 19.88% | inhibition at 5 µM ([2]; 5 µM, ΔT=30 min): 80.1% | % remaining EGFR kinase activity (relative to control) ([2]; 10 µM, ΔT=30 min): 11.75% | inhibition at 10 µM ([2]; 10 µM, ΔT=30 min): 89.9% | IC50 [2, 7]: 0.067 ± 0.001 µM | % Of EGFR inhibition ([2]; concentration not given in Table 2, matches 10 µM in the 4th table): 89.8 ± 2.8% | IC50 [3, 8]: 3.4 ± 0.5 µM | CDK-2 kinase activity remaining (% of control) ([4]; 0.01 µM, ΔT=30 min): 90.99% | inhibition at 0.01 µM ([4]; 0.01 µM, ΔT=30 min, read-out: % of inhibition, CDK2): 9.01% | CDK-2 kinase activity remaining (% of control) ([4]; 0.1 µM, ΔT=30 min): 76% | inhibition at 0.1 µM ([4]; 0.1 µM, ΔT=30 min, read-out: % of inhibition, CDK2): 24% | CDK-2 kinase activity remaining (% of control) ([4]; 1 µM, ΔT=30 min): 60.44% | inhibition at 1 µM ([4]; 1 µM, ΔT=30 min, read-out: % of inhibition, CDK2): 39.6% | CDK-2 kinase activity remaining (% of control) ([4]; 2.5 µM, ΔT=30 min): 56.06% | inhibition at 2.5 µM ([4]; 2.5 µM, ΔT=30 min, read-out: % of inhibition, CDK2): 43.9% | CDK-2 kinase activity remaining (% of control) ([4]; 5 µM, ΔT=30 min): 36.07% | inhibition at 5 µM ([4]; 5 µM, ΔT=30 min, read-out: % of inhibition, CDK2): 63.9% | CDK-2 kinase activity remaining (% of control) ([4]; 10 µM, ΔT=30 min): 29.31% | inhibition at 10 µM ([4]; 10 µM, ΔT=30 min, read-out: % of inhibition, CDK2): 89.4% | IC50 [4, 7]: 0.345 µM | IC50 [5]: 43.5 ± 2 µM

COC(=O)[C@@H](NC(=O)CN1C(=O)S[C@@]2(C1=O)[C@@H](c1ccc(Br)cc1)[C@H]1CSCN1[C@@]21C(=O)Nc2ccc(F)cc21)C(C)C [Compound 5m, Methyl (2-((3S,6′S,7′S,7a′S)-7'-(4-bromophenyl)-5-fluoro-2,2″,4″-trioxo-7′,7a′-dihydro-1′H,3′H-dispiro [indoline-3,5′-pyrrolo [1,2-c]thiazole-6′,5″-thiazolidin]-3″-yl)acetyl)valinate]
IC50 [1, 6]: 6.3 ± 0.3 µM | IC50 [3, 8]: 4.5 ± 0.4 µM

COC(=O)CNC(=O)CN1C(=O)S[C@@]2(C1=O)[C@@H](c1ccc(Cl)cc1)[C@H]1CSCN1[C@@]21C(=O)Nc2cc(Cl)ccc21 [Compound 5b, Methyl (2-((3S,6′S,7′S,7a′S)-6-chloro-7'-(4-chlorophenyl)-2,2″,4″-trioxo-7′,7a′-dihydro-1′H,3′H-dispiro [indoline-3,5′-pyrrolo [1,2-c]thiazole-6′,5″-thiazolidin]-3″-yl)acetyl)glycinate]
IC50 [1, 6]: 32.5 ± 0.42 µM | IC50 [3, 8]: 7.8 ± 0.32 µM

O=C(O)CN1C(=O)S[C@@]2(C1=O)[C@@H](c1ccc(Cl)cc1)[C@H]1CSCN1[C@@]21C(=O)Nc2cc(Cl)ccc21 [Compound 5c, 2-((3S,6′S,7′S,7a′S)-6-chloro-7'-(4-chlorophenyl)-2,2″,4″-trioxo-7′,7a′-dihydro-1′H,3′H-dispiro [indoline-3,5′-pyrrolo [1,2-c]thiazole-6′,5″-thiazolidin]-3″-yl)acetic acid]
IC50 [1, 6]: 24.2 ± 1.1 µM | IC50 [3, 8]: 15.8 ± 0.4 µM

COC(=O)CNC(=O)CN1C(=O)S[C@@]2(C1=O)[C@@H](c1ccc(Cl)cc1)[C@H]1CSCN1[C@@]21C(=O)Nc2ccc(Cl)cc21 [Compound 5a, Methyl (2-((3S,6′S,7′S,7a′S)-5-chloro-7'-(4-chlorophenyl)-2,2″,4″-trioxo-7′,7a′-dihydro-1′H,3′H-dispiro [indoline-3,5′-pyrrolo [1,2-c]thiazole-6′,5″-thiazolidin]-3″-yl)acetyl)glycinate]
IC50 [1, 6]: 29.5 ± 1.3 µM | IC50 [3, 8]: 5.87 ± 0.5 µM

C#Cc1cccc(Nc2ncnc3cc(OCCOC)c(OCCOC)cc23)c1 [Erlotinib, reference compound]
IC50 ([1]; Homo sapiens, MDA-MB-231, read-out: IC50 ± SD, MDA-MB-231): 3.25 ± 0.5 µM | IC50 ([3]; MCF7, read-out: IC50 ± SD, MCF-7): 2.14 ± 0.3 µM

O=C(CN1C(=O)S[C@@]2(C1=O)[C@@H](c1ccc(Cl)cc1)[C@H]1CSCN1[C@@]21C(=O)Nc2ccc(F)cc21)NCCN1CCOCC1 [Compound 5j]
IC50 [1, 6]: 21.4 ± 0.8 µM | IC50 [3, 8]: 23.4 ± 1.2 µM

COC(=O)CCCNC(=O)CN1C(=O)S[C@@]2(C1=O)[C@@H](c1ccc(Br)cc1)[C@H]1CSCN1[C@@]21C(=O)Nc2cc(Cl)ccc21 [Compound 5o, Methyl 4-(2-((3S,6′S,7′S,7a′S)-7'-(4-bromophenyl)-6-chloro-2,2″,4″-trioxo-7′,7a′-dihydro-1′H,3′H-dispiro [indoline-3,5′-pyrrolo [1,2-c]thiazole-6′,5″-thiazolidin]-3″-yl)acetamido)butanoate]
IC50 [1, 6]: 4.32 ± 0.5 µM | IC50 [3, 8]: 4.12 ± 0.4 µM

O=C(CN1C(=O)S[C@@]2(C1=O)[C@@H](c1ccc(Cl)cc1)[C@H]1CSCN1[C@@]21C(=O)Nc2ccc(Cl)cc21)NCCN1CCOCC1 [Compound 5k]
IC50 [1, 6]: 19.5 ± 0.7 µM | IC50 [3, 8]: 21.4 ± 0.9 µM

Cc1ccc2c(c1)[C@@]1(C(=O)N2)N2CSC[C@@H]2[C@H](c2ccc(Cl)cc2)[C@]12SC(=O)N(CC(=O)O)C2=O [Compound 5e, 2-((3S,6′S,7′S,7a′S)-7'-(4-Chlorophenyl)-5-methyl-2,2″,4″-trioxo-7′,7a′-dihydro-1′H,3′H-dispiro [indoline-3,5′-pyrrolo [1,2-c]thiazole-6′,5″-thiazolidin]-3″-yl)acetic acid]
IC50 [1, 6]: 5.4 ± 0.6 µM | IC50 [3, 8]: 9.8 ± 0.7 µM

O=C(CN1C(=O)S[C@@]2(C1=O)[C@@H](c1ccc(Cl)cc1)[C@H]1CSCN1[C@@]21C(=O)Nc2ccc([N+](=O)[O-])cc21)NCCN1CCOCC1 [Compound 5i]
IC50 [1, 6]: 35.3 ± 1.2 µM | IC50 [3, 8]: 28.7 ± 0.8 µM

O=C(O)CN1C(=O)S[C@@]2(C1=O)[C@@H](c1ccc(Cl)cc1)[C@H]1CSCN1[C@@]21C(=O)Nc2ccc(F)cc21 [Compound 5d, 2-((3S,6′S,7′S,7a′S)-7'-(4-Chlorophenyl)-5-fluoro-2,2″,4″-trioxo-7′,7a′-dihydro-1′H,3′H-dispiro [indoline-3,5′-pyrrolo [1,2-c]thiazole-6′,5″-thiazolidin]-3″-yl)acetic acid]
IC50 [1, 6]: 9.8 ± 0.35 µM | IC50 [3, 8]: 19.4 ± 0.4 µM

O=C(O)CN1C(=O)S[C@@]2(C1=O)[C@@H](c1ccc(Cl)cc1)[C@H]1CSCN1[C@@]21C(=O)Nc2ccc([N+](=O)[O-])cc21 [Compound 5f, 2-((3S,6′S,7′S,7a′S)-7'-(4-Chlorophenyl)-5-nitro-2,2″,4″-trioxo-7′,7a′-dihydro-1′H,3′H-dispiro [indoline-3,5′-pyrrolo [1,2-c]thiazole-6′,5″-thiazolidin]-3″-yl)acetic acid]
IC50 [1, 6]: 35.5 ± 1.1 µM | IC50 [3, 8]: 18.5 ± 0.6 µM
